What was measured:
Format in all cases: in vivo
[1] = system: barnyardgrass (Echinochloa crus-galli); assay: Test A postemergence, visual injury rating; conditions: 0 is no effect, 100 is complete control
How it was run: (§1)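 Injury scores run from 0, no effect, to 100, complete control, judged by eye against untreated plants roughly 10 days after treatment. Chemicals carried a surfactant in a non-phytotoxic solvent and went onto loam–sand soil preemergence or onto one- to two-leaf seedlings postemergence.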

[2] = system: blackgrass (Alopecurus myosuroides); assay: Test A postemergence, visual injury rating; conditions: 0 is no effect, 100 is complete control
How it was run: as §1

[3] = system: Italian ryegrass (Lolium multiflorum); assay: Test A postemergence, visual injury rating; conditions: 0 is no effect, 100 is complete control
How it was run: as §1

corn (Zea mays) = assay: Test A postemergence, visual injury rating; conditions: 0 is no effect, 100 is complete control
How it was run: as §1

[4] = system: ragweed (common ragweed, Ambrosia elatior); assay: Test A postemergence, visual injury rating; conditions: 0 is no effect, 100 is complete control
How it was run: as §1

[5] = system: galium (catchweed bedstraw, Galium aparine); assay: Test A postemergence, visual injury rating; conditions: 0 is no effect, 100 is complete control
How it was run: as §1

[6] = system: wheat (Triticum aestivum); assay: Test A postemergence, visual injury rating; conditions: 0 is no effect, 100 is complete control
How it was run: as §1

[7] = system: giant foxtail (Setaria faberii); assay: Test A postemergence, visual injury rating; conditions: 0 is no effect, 100 is complete control
How it was run: as §1

[8] = system: pigweed (Amaranthus retroflexus); assay: Test A postemergence, visual injury rating; conditions: 0 is no effect, 100 is complete control
How it was run: as §1

kochia (Kochia scoparia) [9] = assay: Test A postemergence, visual injury rating; conditions: 0 is no effect, 100 is complete control
How it was run: as §1

[10] = system: barnyardgrass (Echinochloa crus-galli); assay: Test B flooded paddy test, plant response rating; conditions: 250 g ai/ha; Flood; scale of 0 to 100 where 0 is no effect and 100 is complete control; 13 to 15 days
How it was run: (§2)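 Greenhouse pots flooded to 3 cm above soil at time of treatment received compound via the water, which stayed at that level.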

[11] = system: sedge, umbrella (small-flower umbrella sedge, Cyperus difformis); assay: Test B flooded paddy test, plant response rating; conditions: 250 g ai/ha; Flood; scale of 0 to 100 where 0 is no effect and 100 is complete control; 13 to 15 days
How it was run: as §2

[12] = system: ducksalad (Heteranthera limosa); assay: Test B flooded paddy test, plant response rating; conditions: 250 g ai/ha; Flood; scale of 0 to 100 where 0 is no effect and 100 is complete control; 13 to 15 days
How it was run: as §2

rice (Oryza sativa) = assay: Test B flooded paddy test, plant response rating; conditions: 250 g ai/ha; Flood; scale of 0 to 100 where 0 is no effect and 100 is complete control; 13 to 15 days
How it was run: as §2

[13] = system: barnyardgrass (Echinochloa crus-galli); assay: Test A preemergence, visual injury rating; conditions: for Barnyardgrass plant response rating: 0 to 100 scale (0 no effect, 100 complete control)
How it was run: as §1

[14] = system: Italian ryegrass (Lolium multiflorum); assay: Test A preemergence, visual injury rating; conditions: for Ryegrass, Italian plant response rating: 0 to 100 scale (0 no effect, 100 complete control)
How it was run: as §1

[15] = system: ragweed (common ragweed, Ambrosia elatior); assay: Test A preemergence, visual injury rating; conditions: for Ragweed plant response rating: 0 to 100 scale (0 no effect, 100 complete control)
How it was run: as §1

[16] = system: giant foxtail (Setaria faberii); assay: Test A preemergence, visual injury rating; conditions: for Foxtail, Giant plant response rating: 0 to 100 scale (0 no effect, 100 complete control)
How it was run: as §1

[17] = system: pigweed (Amaranthus retroflexus); assay: Test A preemergence, visual injury rating; conditions: for Pigweed plant response rating: 0 to 100 scale (0 no effect, 100 complete control)
How it was run: as §1

kochia (Kochia scoparia) [18] = assay: Test A preemergence, visual injury rating; conditions: for Kochia plant response rating: 0 to 100 scale (0 no effect, 100 complete control)
How it was run: as §1

[19] = 31 g ai/ha, 0 to 100 scale, approximately 10 days
[20] = 31 g ai/ha, 0 to 100 scale, 0 no effect, 100 complete control

N#Cc1ccc(Oc2ncc(Cl)cn2)c(C(=O)OCCC(F)(F)F)c1 [Compound 64]
0: Barnyardgrass plant response rating (0 to 100 scale) ([1]; 125 g ai/ha) | Barnyardgrass plant response rating (0 to 100 scale) ([1]; 500 g ai/ha) | Blackgrass plant response rating (0 to 100 scale) ([2]; 125 g ai/ha) | Blackgrass plant response rating (0 to 100 scale) ([2]; 500 g ai/ha) | Ryegrass, Italian plant response rating (0 to 100 scale) ([3]; 125 g ai/ha) | Ryegrass, Italian plant response rating (0 to 100 scale) ([3]; 500 g ai/ha) | Corn plant response rating (0 to 100 scale) (corn (Zea mays); 125 g ai/ha) | Corn plant response rating (0 to 100 scale) (corn (Zea mays); 500 g ai/ha) | Ragweed plant response rating (0 to 100 scale) ([4]; 125 g ai/ha) | Ragweed plant response rating (0 to 100 scale) ([4]; 500 g ai/ha) | Galium plant response rating (0 to 100 scale) ([5]; 125 g ai/ha) | Galium plant response rating (0 to 100 scale) ([5]; 500 g ai/ha) | Wheat plant response rating (0 to 100 scale) ([6]; 125 g ai/ha) | Wheat plant response rating (0 to 100 scale) ([6]; 500 g ai/ha) | Foxtail, Giant plant response rating (0 to 100 scale) ([7]; 125 g ai/ha) | Foxtail, Giant plant response rating (0 to 100 scale) ([7]; 500 g ai/ha) | Pigweed plant response rating (0 to 100 scale) ([8]; 125 g ai/ha) | Pigweed plant response rating (0 to 100 scale) ([8]; 500 g ai/ha) | Kochia plant response rating (0 to 100 scale) (kochia (Kochia scoparia) [9]; 125 g ai/ha) | Kochia plant response rating (0 to 100 scale) (kochia (Kochia scoparia) [9]; 500 g ai/ha) | Plant response rating, Barnyardgrass [10] | Plant response rating, Sedge, Umbrella [11] | Plant response rating, Ducksalad [12] | Plant response rating, Rice (rice (Oryza sativa)) | Barnyardgrass plant response rating ([13]; 125 g ai/ha) | Barnyardgrass plant response rating ([13]; 500 g ai/ha) | Ryegrass, Italian plant response rating ([14]; 125 g ai/ha) | Ryegrass, Italian plant response rating ([14]; 500 g ai/ha) | Ragweed plant response rating ([15]; 125 g ai/ha) | Ragweed plant response rating ([15]; 500 g ai/ha) | Foxtail, Giant plant response rating ([16]; 125 g ai/ha) | Foxtail, Giant plant response rating ([16]; 500 g ai/ha) | Pigweed plant response rating ([17]; 125 g ai/ha) | Pigweed plant response rating ([17]; 500 g ai/ha) | Kochia plant response rating (kochia (Kochia scoparia) [18]; 125 g ai/ha) | Kochia plant response rating (kochia (Kochia scoparia) [18]; 500 g ai/ha)

CCCC(=O)c1c(C#N)cccc1Oc1ncc(Cl)cn1 [Compound 67]
0: Barnyardgrass plant response rating [1, 19] | Barnyardgrass plant response rating (0 to 100 scale) ([1]; 125 g ai/ha) | Blackgrass plant response rating [2, 19] | Blackgrass plant response rating (0 to 100 scale) ([2]; 125 g ai/ha) | Ryegrass, Italian plant response rating [3, 19] | Ryegrass, Italian plant response rating (0 to 100 scale) ([3]; 125 g ai/ha) | Corn plant response rating (corn (Zea mays); [19]) | Corn plant response rating (0 to 100 scale) (corn (Zea mays); 125 g ai/ha) | Ragweed plant response rating [4, 19] | Ragweed plant response rating (0 to 100 scale) ([4]; 125 g ai/ha) | Galium plant response rating [5, 19] | Galium plant response rating (0 to 100 scale) ([5]; 125 g ai/ha) | Wheat plant response rating [6, 19] | Wheat plant response rating (0 to 100 scale) ([6]; 125 g ai/ha) | Foxtail, Giant plant response rating [7, 19] | Foxtail, Giant plant response rating (0 to 100 scale) ([7]; 125 g ai/ha) | Pigweed plant response rating [8, 19] | Pigweed plant response rating (0 to 100 scale) ([8]; 125 g ai/ha) | Kochia plant response rating (kochia (Kochia scoparia) [9]; [19]) | Kochia plant response rating (0 to 100 scale) (kochia (Kochia scoparia) [9]; 125 g ai/ha) | Plant response rating, Barnyardgrass [10] | Plant response rating, Sedge, Umbrella [11] | Plant response rating, Ducksalad [12] | Plant response rating, Rice (rice (Oryza sativa)) | Plant response rating, Barnyardgrass [13, 20] | Barnyardgrass plant response rating ([13]; 125 g ai/ha) | Plant response rating, Ryegrass, Italian [14, 20] | Ryegrass, Italian plant response rating ([14]; 125 g ai/ha) | Plant response rating, Ragweed [15, 20] | Ragweed plant response rating ([15]; 125 g ai/ha) | Plant response rating, Foxtail, Giant [16, 20] | Foxtail, Giant plant response rating ([16]; 125 g ai/ha) | Plant response rating, Pigweed [17, 20] | Pigweed plant response rating ([17]; 125 g ai/ha) | Plant response rating, Kochia (kochia (Kochia scoparia) [18]; [20]) | Kochia plant response rating (kochia (Kochia scoparia) [18]; 125 g ai/ha)

Source: patent US11053204B2, “Pyrimidinyloxy benzene derivatives as herbicides” (FMC Corporation, priority 2015, dated 2021)
